From US20180243298A1, “TRPV3 MODULATORS” (AbbVie Inc., priority 2015, published 2018)
pIC50: −log10 of the molar value.

What follows are molecules tested against T1, human TRPV3 (Homo sapiens, UniProt Q8NET8) (assay: Calcium flux assay (FLIPR TETRA), recombinant HEK293 cells expressing TRPV3, 2-APB response). Conditions: 2-APB at its EC80.
T1 construct: expressed in transfected cells; host or cells: HEK293
T1 sequence (Q8NET8 1-790): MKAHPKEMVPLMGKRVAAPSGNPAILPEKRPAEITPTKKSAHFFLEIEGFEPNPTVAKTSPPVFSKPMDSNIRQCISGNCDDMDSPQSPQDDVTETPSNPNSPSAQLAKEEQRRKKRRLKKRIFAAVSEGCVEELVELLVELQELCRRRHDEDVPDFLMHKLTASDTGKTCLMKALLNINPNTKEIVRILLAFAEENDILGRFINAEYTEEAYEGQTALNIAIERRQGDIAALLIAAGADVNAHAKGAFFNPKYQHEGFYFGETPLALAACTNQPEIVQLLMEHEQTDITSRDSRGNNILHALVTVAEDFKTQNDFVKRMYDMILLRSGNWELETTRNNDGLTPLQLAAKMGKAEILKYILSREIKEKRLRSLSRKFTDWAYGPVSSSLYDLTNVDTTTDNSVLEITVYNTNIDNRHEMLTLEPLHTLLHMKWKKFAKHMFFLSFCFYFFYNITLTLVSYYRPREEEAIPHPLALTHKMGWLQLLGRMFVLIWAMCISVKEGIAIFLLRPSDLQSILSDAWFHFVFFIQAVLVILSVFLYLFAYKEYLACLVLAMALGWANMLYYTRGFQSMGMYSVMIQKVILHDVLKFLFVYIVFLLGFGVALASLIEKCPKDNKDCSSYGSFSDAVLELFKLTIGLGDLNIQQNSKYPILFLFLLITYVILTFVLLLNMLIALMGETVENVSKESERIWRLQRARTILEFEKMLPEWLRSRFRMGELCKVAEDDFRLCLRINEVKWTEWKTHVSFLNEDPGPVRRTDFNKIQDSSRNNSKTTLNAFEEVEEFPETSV
Assay type: cell-based
Method: (i) In Vitro Methods-Calcium Flux Assays:
Experiments were conducted using the FLIPR TETRA®. On the day prior to the experiment, recombinant HEK293 cells that stably express human and mouse TRPV3 were removed from tissue culture flasks and plated in growth medium at 20,000 cells/well into black-walled clear-bottom 384-well BIOCOAT™ poly-D-lysine assay plates (BD Biosciences, Bedford, Mass.) using a MULTIDROP® dispenser (ThermoScientific, Waltham, Mass.). On the day of the experiment, growth medium was removed, and the no-wash FLIPR® Calcium-4 dye (λEX=470-495 nm, λEM=515-575 nm; Molecular Devices, Sunnyvale, Calif.) was added to each well using the MULTIDROP® dispenser. Cells were incubated for 90-120 minutes in the dark. The compounds were dissolved in DMSO to prepare a 10 mM stock solution. The intensity of the fluorescence was captured and digitally transferred to an interfaced PC. The peak increase in fluorescence over baseline, measured in relative fluorescence units, was calculated and expressed as the percentage of the maximal 2-APB (2-aminoethoxyldiphenyl borate) response (in the absence of compound). The concentration of 2-APB corresponds to its EC80.

First: COc1ncnc(OC)c1C(=O)Nc1nc(C(F)(F)F)c(C2(C)OCCO2)s1 [Example 137, 4,6-dimethoxy-N-[5-(2-methyl-1,3-dioxolan-2-yl)-4-(trifluoromethyl)-1,3-thiazol-2-yl]pyrimidine-5-carboxamide]
Second: COc1ncnc(OC)c1C(=O)Nc1nc(C(F)(F)F)c(C2OCCO2)s1 [Example 138, N-[5-(1,3-dioxolan-2-yl)-4-(trifluoromethyl)-1,3-thiazol-2-yl]-4,6-dimethoxypyrimidine-5-carboxamide]
The pIC50 of the first is higher: 7.00 to 7.30 for the first, 6.30 to 7.00 for the second.

Compared with `COCC#Cc1sc(NC(=O)c2c(OC)ncnc2OC)nc1C(F)(F)F` [Example 15, 4,6-dimethoxy-N-[5-(3-methoxyprop-1-yn-1-yl)-4-(trifluoromethyl)-1,3-thiazol-2-yl]pyrimidine-5-carboxamide], `COc1ncnc(OC)c1C(=O)Nc1nc(C(F)(F)F)c(C#CC(C)(C)O)s1` [Example 19, N-[5-(3-hydroxy-3-methylbut-1-yn-1-yl)-4-(trifluoromethyl)-1,3-thiazol-2-yl]-4,6-dimethoxypyrimidine-5-carboxamide] is lower in pIC50: > 7.30 for the first, 7.00 to 7.30 for the second. The first is the more potent here.

First: COc1ncnc(OC)c1C(=O)Nc1nc(C(F)(F)F)c(Sc2ccccc2)s1 [Example 115, 4,6-dimethoxy-N-[5-phenylsulfanyl-4-(trifluoromethyl)-1,3-thiazol-2-yl]pyrimidine-5-carboxamide]
Second: COc1ncnc(OC)c1C(=O)Nc1nc(C(F)(F)F)c(S(=O)(=O)Cc2ccccc2)s1 [Example 111, N-[5-benzylsulfonyl-4-(trifluoromethyl)-1,3-thiazol-2-yl]-4,6-dimethoxy-pyrimidine-5-carboxamide]
The pIC50 of the first is higher: 7.00 to 7.30 for the first, 6.00 to 6.30 for the second.

First: COc1ncnc(OC)c1C(=O)Nc1nc(C(F)(F)F)c(C(O)C(C)(C)C)s1 (stereo not shown) [Example 123, N-[5-(1-hydroxy-2,2-dimethylpropyl)-4-(trifluoromethyl)-1,3-thiazol-2-yl]-4,6-dimethoxypyrimidine-5-carboxamide]
Second: COc1ncnc(OC)c1C(=O)Nc1nc(C(F)(F)F)c(C)s1 [Example 1, 4,6-dimethoxy-N-[5-methyl-4-(trifluoromethyl)-1,3-thiazol-2-yl]pyrimidine-5-carboxamide]
The pIC50 of the first is lower: 6.30 to 7.00 for the first, 7.00 to 7.30 for the second.

`COc1ncnc(OC)c1C(=O)Nc1nc(C(F)(F)F)c(C(C)(O)c2ccccn2)s1` (stereo not shown) [Example 129, N-{5-[1-hydroxy-1-(pyridin-2-yl)ethyl]-4-(trifluoromethyl)-1,3-thiazol-2-yl}-4,6-dimethoxypyrimidine-5-carboxamide] and `COc1ncnc(OC)c1C(=O)Nc1nc(C(F)(F)F)c(C(=O)c2ccccn2)s1` [Example 127, 4,6-dimethoxy-N-[5-(pyridin-2-ylcarbonyl)-4-(trifluoromethyl)-1,3-thiazol-2-yl]pyrimidine-5-carboxamide] cannot be ordered by pIC50: < 6.00 for the first, < 6.00 for the second.

First: COc1ncnc(OC)c1C(=O)Nc1nc(C(F)(F)F)c(C(O)c2ccc(F)cn2)s1 (stereo not shown) [Example 130, N-{5-[(5-fluoropyridin-2-yl)(hydroxy)methyl]-4-(trifluoromethyl)-1,3-thiazol-2-yl}-4,6-dimethoxypyrimidine-5-carboxamide]
Second: COc1ncnc(OC)c1C(=O)Nc1nc(C(F)(F)F)c(-c2ccc(F)nc2)s1 [Example 8, N-[5-(6-fluoropyridin-3-yl)-4-(trifluoromethyl)-1,3-thiazol-2-yl]-4,6-dimethoxypyrimidine-5-carboxamide]
The pIC50 of the first is lower: 6.30 to 7.00 for the first, 7.00 to 7.30 for the second.

First: COC/C=C\c1sc(NC(=O)c2c(OC)ncnc2OC)nc1C(F)(F)F [Example 17, 4,6-dimethoxy-N-{5-[(1Z)-3-methoxyprop-1-en-1-yl]-4-(trifluoromethyl)-1,3-thiazol-2-yl}pyrimidine-5-carboxamide]
Second: COc1ncnc(OC)c1C(=O)Nc1nc(C(F)(F)F)c(C(C)=O)s1 [Example 133, N-[5-acetyl-4-(trifluoromethyl)-1,3-thiazol-2-yl]-4,6-dimethoxypyrimidine-5-carboxamide]
The pIC50 of the first is higher: > 7.30 for the first, 6.30 to 7.00 for the second. The first is the more potent here.

`COc1ncnc(OC)c1C(=O)Nc1nc(C(C)(C)C)c(Br)s1` [Example 192, N-(5-bromo-4-tert-butyl-1,3-thiazol-2-yl)-4,6-dimethoxypyrimidine-5-carboxamide] and `CCOC(=O)c1sc(NC(=O)c2c(OC)ncnc2OC)nc1C(C)(C)C` [Example 193, ethyl 4-tert-butyl-2-{[(4,6-dimethoxypyrimidin-5-yl)carbonyl]amino}-1,3-thiazole-5-carboxylate] cannot be ordered by pIC50: > 7.30 for the first, > 7.30 for the second.

First: COc1ncnc(OC)c1C(=O)Nc1nc(-c2ccc(C(F)(F)F)cn2)c(C(C)O)s1 (single isomer, unassigned) [Example 84, N-{5-[(1S*)-1-hydroxyethyl]-4-[5-(trifluoromethyl)pyridin-2-yl]-1,3-thiazol-2-yl}-4,6-dimethoxypyrimidine-5-carboxamide]
Second: COc1ncnc(OC)c1C(=O)Nc1nc(-c2ccc(C(F)(F)F)cn2)c(CO)s1 [Example 80, N-{5-(hydroxymethyl)-4-[5-(trifluoromethyl)pyridin-2-yl]-1,3-thiazol-2-yl}-4,6-dimethoxypyrimidine-5-carboxamide]
The pIC50 of the first is lower: 6.30 to 7.00 for the first, 7.00 to 7.30 for the second.

First: COc1ncnc(OC)c1C(=O)Nc1nc(-c2ccc(C(F)(F)F)cn2)c(C(C)(C)O)s1 [Example 85, N-{5-(2-hydroxypropan-2-yl)-4-[5-(trifluoromethyl)pyridin-2-yl]-1,3-thiazol-2-yl}-4,6-dimethoxypyrimidine-5-carboxamide]
Second: CO/N=C(\C)c1sc(NC(=O)c2c(OC)ncnc2OC)nc1-c1ccc(C(F)(F)F)cn1 [Example 89, 4,6-dimethoxy-N-{5-[(1E)-N-methoxyethanimidoyl]-4-[5-(trifluoromethyl)pyridin-2-yl]-1,3-thiazol-2-yl}pyrimidine-5-carboxamide]
The pIC50 of the first is lower: 7.00 to 7.30 for the first, > 7.30 for the second. The second is the more potent here.

`CCSc1ncnc(OC)c1C(=O)Nc1nc(C(F)(F)F)c(-c2ccccc2C#N)s1` [Example 160, N-[5-(2-cyanophenyl)-4-(trifluoromethyl)-1,3-thiazol-2-yl]-4-(ethylsulfanyl)-6-methoxypyrimidine-5-carboxamide] and `COc1ncnc(OC)c1C(=O)Nc1nc(C(F)(F)F)c(-c2cccc(F)c2C#N)s1` [Example 25, N-[5-(2-cyano-3-fluorophenyl)-4-(trifluoromethyl)-1,3-thiazol-2-yl]-4,6-dimethoxypyrimidine-5-carboxamide] cannot be ordered by pIC50: > 7.30 for the first, > 7.30 for the second.

First: COc1ncnc(OC)c1C(=O)Nc1nc(C(F)(F)F)c(CN2CC[C@H](F)C2)s1 [Example 57, N-[5-{[(3 S)-3-fluoropyrrolidin-1-yl]methyl}-4-(trifluoromethyl)-1,3-thiazol-2-yl]-4,6-dimethoxypyrimidine-5-carboxamide]
Second: COc1ncnc(OC)c1C(=O)Nc1nc(C(F)(F)F)c(C2CCOCC2)s1 [Example 39, 4,6-dimethoxy-N-[5-(tetrahydro-2H-pyran-4-yl)-4-(trifluoromethyl)-1,3-thiazol-2-yl]pyrimidine-5-carboxamide]
The pIC50 of the first is lower: 6.30 to 7.00 for the first, 7.00 to 7.30 for the second. The second is the more potent here.

`COc1ncnc(OC)c1C(=O)Nc1nc(C(F)(F)F)c(-c2cccc(NS(=O)(=O)N(C)C)c2)s1` [Example 201, N-[5-{3-[(dimethylsulfamoyl)amino]phenyl}-4-(trifluoromethyl)-1,3-thiazol-2-yl]-4,6-dimethoxypyrimidine-5-carboxamide] and `COc1ncnc(OC)c1C(=O)Nc1nc(C(F)(F)F)c(-c2ccnc(C(F)(F)F)c2)s1` [Example 166, 4,6-dimethoxy-N-{4-(trifluoromethyl)-5-[2-(trifluoromethyl)pyridin-4-yl]-1,3-thiazol-2-yl}pyrimidine-5-carboxamide] fall in the same range of pIC50: 7.00 to 7.30 for the first, 7.00 to 7.30 for the second.

`COc1ncnc(OC)c1C(=O)Nc1nc(-c2ccc(C(F)(F)F)cn2)c(CN2CCOCC2)s1` [Example 77, 4,6-dimethoxy-N-{5-(morpholin-4-ylmethyl)-4-[5-(trifluoromethyl)pyridin-2-yl]-1,3-thiazol-2-yl}pyrimidine-5-carboxamide] and `COc1ncnc(OC)c1C(=O)Nc1nc(C(F)(F)F)c(-c2cnc(C3CC3)nc2)s1` [Example 203, N-[5-(2-cyclopropylpyrimidin-5-yl)-4-(trifluoromethyl)-1,3-thiazol-2-yl]-4,6-dimethoxypyrimidine-5-carboxamide] cannot be ordered by pIC50: > 7.30 for the first, > 7.30 for the second.
